Assay results as given in patent US20050250799A1, “Protease inhibitors for treatment of wrinkles” (priority 2004, published 2005).

What was measured:
[1] = test system: UVB-induced wrinkle formation; experiment: Example 3: UVB-induced skin wrinkling; format: in vivo, hairless Skh-1 mice; details: 100 μl on back skin three times weekly, 10 weeks, category 0 (no wrinkle) to 4 (severe wrinkle)
Experimental: (§1) Five groups of mice (7-week-old female hairless Skh-1 mice, n=3/group) were used: group 1: UVB+1% ucf-101 in DMSO; group 2: UVB+DMSO control; group 3: UVB+0.1% ucf-101 in acetone; group 4: UVB+acetone control; group 5: no UVB control.
(§2) Groups 1, 2, 3 and 4 were exposed to UVB irradiation using fluorescent lamps (Southern New England Ultraviolet) to deliver 0.35 mW/cm^2 at the dorsal skin surface of the mice. After irradiation, the indicated samples (100 μl each) for each group were applied to the back skin. This procedure was repeated three times weekly for ten weeks, to simulate chronic UVB exposure. […] The total cumulative dose was 6.54 J/cm^2 UVB.
(§3) After 10 weeks, skin wrinkling was evaluated using five categories (0: no wrinkle; 1: slight wrinkle; 2: clear wrinkle; 3: strong wrinkle; 4: severe wrinkle). Mice of group 1 and group 2 were sacrificed and back skin samples were snap-frozen in liquid nitrogen. Immunohistochemical staining was performed on 7-micrometer frozen sections using a monoclonal rat anti-mouse CD31 antibody (BD Pharmingen). Representative sections were obtained from UVB irradiated mice and were analyzed using a Nikon E-600 microscope. Images were captured with a Spot digital camera (Diagnostic Instruments), and morphometric analyses were performed using the IP-LAB software. Areas occupied by blood vessels were determined in the dermis.

[2] = test system: UVB-induced vessel dilation; experiment: Example 3: dermal blood vessel area (CD31 staining) after UVB; format: in vivo, hairless Skh-1 mice; details: UVB + 1% in DMSO, 100 μl on back skin three times weekly, 10 weeks; dermis
Experimental: as §1, §2, §3

[3] = test system: various other serine proteases; details: various other serine proteases tested; cited from earlier work
[4] = target: T1, Omi/HtrA2 (His-Omi 134-458) (Homo sapiens, UniProt O43464); details: cited from earlier work
T1 construct: His
T1 sequence (O43464 134-458): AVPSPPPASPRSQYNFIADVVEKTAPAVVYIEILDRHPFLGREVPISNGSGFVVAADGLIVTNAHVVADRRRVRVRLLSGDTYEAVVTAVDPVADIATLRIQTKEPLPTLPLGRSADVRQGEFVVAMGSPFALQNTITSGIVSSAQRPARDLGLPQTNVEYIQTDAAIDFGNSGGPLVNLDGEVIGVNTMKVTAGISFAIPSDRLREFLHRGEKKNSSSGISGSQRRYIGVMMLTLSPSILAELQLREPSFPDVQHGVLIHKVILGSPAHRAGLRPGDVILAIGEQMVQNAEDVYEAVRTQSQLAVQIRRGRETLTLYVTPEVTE

mice ears [5] = experiment: Example 4: effects of test samples on ear thickness; format: in vivo, mice (FVB strain); details: 0.1% in 25% DMSO + 75% ethanol, 10 μl on days 0, 1, 2
Experimental: Control thickness of mice ears (FVB strain, female, 7 weeks of age, n=3/group) was measured with a thickness gauge (Mitsutoyo Corp.) on day 0. After measuring the thickness of both ears, 10 μl of test sample solution was applied to the left ear and 10 μl of solvent was applied to the right ear. After 24 hours (day 1), ear thickness was measured and a second dose administered (left ear: test solution, right ear: solvent). After a second 24 hours (day 2), ear thickness was measured and a third dose administered (left ear: test solution, right ear: solvent).

mice ears [6] = experiment: Example 1: effect on ear thickness (skin irritancy); format: in vivo, mice (FVB strain); details: for Left ear thickness (mean): 10 μl on left ear
Experimental: Control thickness of mice ears (FVB strain, male, 7 weeks of age, n=3/group) was measured with a thickness gauge (Mitsutoyo Corp.). After measuring the thickness of both ears, 10 μl of ucf-101 solution (1.0% or 0.1%) was applied to the left ear and 10 μl of solvent was applied to the right ear. Ear thickness was measured for three consecutive days after administration.

[7] = test system: UVB-induced wrinkle formation; experiment: Example 6: UVB-induced skin wrinkling; format: in vivo, Skh-1 hairless mice; details: UVB + 0.1% in 25% DMSO + 75% ethanol, 100 μl on back skin three times weekly, 10 weeks; category 0 (no wrinkle) to 4 (severe wrinkle)
[8] = test system: UVB-induced vessel dilation; experiment: Example 6: dermal blood vessel area (CD31 staining) after UVB; format: in vivo, Skh-1 hairless mice; details: UVB + 0.1% in 25% DMSO + 75% ethanol, 100 μl on back skin three times weekly, 10 weeks; dermis
UVB-irradiated mice ears = experiment: Example 2: ear thickness on UVB-exposed skin; format: in vivo, mice (Swiss Webster strain); details: 1% in DMSO; for Left ear thickness (mean): UVB 80 mJ/cm^2, 5 μl on days 0, 1, 2
Experimental: The ear thickness of mice (Swiss Webster strain, male, 7 weeks of age, n=3/group) was measured with a thickness gauge (Mitsutoyo Corp.) on day 0. After measuring the thickness of both ears, both ears were UVB-irradiated (80 mJ/cm^2). 5 μl of 1% ucf-101 in DMSO was applied to the left ear and 5 μl of DMSO was applied to the right ear. After 24 hours (day 1), ear thickness was measured and a second dose administered (left ear 1% ucf-101 in DMSO; right ear: DMSO). After a second 24 hours (day 2), ear thickness was again measured and a third dose administered (left ear 1% ucf-101 in DMSO; right ear: DMSO). Ear thickness was then monitored over four additional consecutive days (days 3-6).

With `O=C1C(=Cc2ccc(-c3ccccc3[N+](=O)[O-])o2)C(=O)N(c2ccccc2)C(=S)N1c1ccccc1` [Ucf-101] the “Wrinkle category (mean)” value ([1]; UVB + 0.1% in acetone) was 1.67, the “Wrinkle category (mean)” value ([1]; UVB + 1% in DMSO) was 1.33 and the “Percent of vessel area (mean)” value [2] was 7.1%. For the same compound, the IC50 [3] was 200 µM, the IC50 [4] was 9.5 µM and the “Left ear thickness (mean)” value (mice ears [5]; day 0 (before application)) was 25.7 ×0.01 mm. The “Left ear thickness (mean)” value (mice ears [5]; day 1) was 26.3 ×0.01 mm, the “Left ear thickness (mean)” value (mice ears [5]; day 2) was 27.3 ×0.01 mm and the “Left ear thickness (mean)” value (mice ears [5]; day 3) was 28.3 ×0.01 mm. For the same compound, the “Left ear thickness (mean)” value (mice ears [6]; 0.1% in acetone, day 0 (before application)) was 29.0 ×0.01 mm, the “Left ear thickness (mean)” value (mice ears [6]; 0.1% in acetone, day 1) was 30.0 ×0.01 mm and the “Left ear thickness (mean)” value (mice ears [6]; 0.1% in acetone, day 2) was 29.3 ×0.01 mm. The “Left ear thickness (mean)” value (mice ears [6]; 0.1% in acetone, day 3) was 29.0 ×0.01 mm, the “irritancy (ear thickness compared to solvent alone)” value (mice ears [6]; 1% in DMSO or 0.1% in acetone) was “not an irritant” and the “Left ear thickness (mean)” value (mice ears [6]; 1% in DMSO, day 0 (before application)) was 28.0 ×0.01 mm. For the same compound, the “Left ear thickness (mean)” value (mice ears [6]; 1% in DMSO, day 1) was 28.7 ×0.01 mm, the “Left ear thickness (mean)” value (mice ears [6]; 1% in DMSO, day 2) was 28.7 ×0.01 mm and the “Left ear thickness (mean)” value (mice ears [6]; 1% in DMSO, day 3) was 28.3 ×0.01 mm. The “Wrinkle category (mean)” value [7] was 1.00, the “Percent of vessel area (mean)” value [8] was 4.7% and the “Left ear thickness (mean)” value (UVB-irradiated mice ears; day 0 (before UVB and application)) was 31.0 ×0.01 mm. The “Left ear thickness (mean)” value (UVB-irradiated mice ears; day 1) was 36.3 ×0.01 mm, the “Left ear thickness (mean)” value (UVB-irradiated mice ears; day 2) was 40.0 ×0.01 mm and the “Left ear thickness (mean)” value (UVB-irradiated mice ears; day 3) was 42.3 ×0.01 mm. The “Left ear thickness (mean)” value (UVB-irradiated mice ears; day 4) was 42.7 ×0.01 mm, the “Left ear thickness (mean)” value (UVB-irradiated mice ears; day 5) was 39.3 ×0.01 mm and the “Left ear thickness (mean)” value (UVB-irradiated mice ears; day 6) was 38.3 ×0.01 mm. The “ear thickness (irritancy) compared to control” value (UVB-irradiated mice ears; UVB-exposed ears) was “did not increase ear thickness”.
